What was measured:
BAEC cells [1] = assay: Inhibition of the proliferation of endothelial cells induced by FGF-2 (Crystal Violet); assay type: cell-based, Bovine; settings: FGF-2 5 ng/ml, 72 h
Method: BAEC cells (25000/ml) in DMEM 1.5% FCS were sown in 96 well plates. After 24 h the culture medium was substituted with DMEM 0.5% FCS containing the compounds of the invention at different concentrations in the range indicated herein below, and FGF-2 (5 ng/ml) or 10% FCS, added as stimulator of the cellular proliferation. After 72 h of incubation, the cells were fixed and stained with Crystal Violet, (Sigma). The stain was then eluted by using a solution 1:1 of ethanol and sodium citrate 0.1M and the absorption of the solution determined at the wave length of 540 nm.
In this test the compounds of examples 2, 4, 8 and 10 were used. For each compound several concentrations comprised between 10 and 100 μM were prepared. The obtained results are reported in Table 3 and have been given as percent reduction of the cellular proliferation of endothelial cells in the presence of FGF-2, induced by the compounds of the invention, with respect to the control (proliferation in the presence of FGF-2 only).

[2] = system: Aorta sections (angiogenesis induced by FGF-2); assay: Angiogenesis test ex vivo (aorta section), FGF-2 induced sprouting in Matrigel; assay type: cell-based, C57BL/6 mice; settings: for Sprouting area (% vs. control): FGF-2 30 ng/ml, eleven days, control = 100%
Method: Aorta sections (aorta rings of about 1 mm) taken from C57BL/6 mice, are dipped in a Matrigel gel (BD Biosciences), in 96 well plates, in DMEM 5% FCS containing FGF-2 (30 ng/ml) together with the compounds of the invention at concentrations in the range indicated herein below. By using an inverted microscope (IX70; Olympus) after some days it is observed in the plate the formation of a network of capillary structures irradiating from the aorta section. Images were taken and analyzed by ImageJ 1.41. After eleven days from the beginning of the experiment the angiogenic response is quantified as sprouting area, therefore subtracting the area of the aorta section.
The compounds of the examples 2, 4 and 10 and, as a reference, the reference compound sm27 at concentrations comprised between 50 and 100 μM were used. In Table 4 the results are reported, expressed as a percent variation (decrease) of the sprouting area with respect to that of the control (presence of FGF-2 only).
In FIG. 1 the aorta sections are reported, analyzed after eleven days in absence (left photo—(a)) or in the presence (right photo (b)) of the compound obtained in example 10 (concentration 100 μM). […]

FGF-2 = FGF-2 (Homo sapiens, UniProt P09038); assay: Competition with biotinylated TS3R domain for binding to immobilized FGF-2 (DELFIA); settings: for % TS3R/FGF-2 binding vs. control: control = 100% binding, average of 3 experiments
Description: For the evaluation of the binding of the compounds of the invention to FGF-2, the test described in G. Colombo et al. J. Biol. Chem., 285: 8733, 2010 has been used. In this reference the binding test has been used to assay the binding of compound sm27 to FGF-2. Specifically, the test allows to evaluate the capability of the compounds under examination to compete with the biotinylated TS3R domain (the recombinant part of Thrombospondine 1 (TSP-1) containing the bond sequence for FGF-2), for the binding to FGF-2 immobilized on a plastic support.
In detail, FGF-2 (0.1 μg) has been immobilized on 96 well plates (DELFIA microtitration plates, Perkin Elmer) leaving into contact for one night at 4° C. by using known techniques. After saturation of the non specific sites with 1% BSA, the compounds to be tested and then the biotinylated TS3R domain (10 nM) in PBS 1% BSA were added. After a period of incubation of 3 hours, the plate was washed and treated with Eu-Labeled Streptavidin 1:1000 and incubated again for one further hour. The amount of TS3R bound to FGF was determined with DELFIA Enhancement Solution, measuring the resolved fluorescence (Victor, PerkinElmer).
The test was carried out on the compounds of examples 2, 4, 8, 10 and 12. The used concentrations were respectively of 10 and 100 μM. The obtained results are reported in Table 1 and have been expressed as inhibition percentage of the TS3R/FGF-2 binding induced by the compounds of the invention vs. the control (TS3R/FGF-2 binding in the absence of the compounds of the invention). As a reference compound sm27 was used and assayed at a concentration of 100 μM. […] The compounds of the invention in this test are as effective as sm27 at the assayed dose of 100 μM.
By using the test in vitro described in example 17 the binding to FGF-2 of the compounds (2p) and (2r) having the formulas herein below reported, has been assayed. These compounds are disclosed by G. A. Pinna et al. on Il Farmaco 58 (2003) 749-763.

[3] = molecular target: T1, FGF-2 binding to BAEC cells (Bovine Aortic Endothelial Cells) (Homo sapiens, UniProt P09038); assay: Inhibition of the binding of europium-labelled FGF-2 to endothelial cells; assay type: cell-based; settings: 100 μM; control = 100% binding; average of 3 experiments
T1 construct: host or cells: added exogenously to BAEC (Bovine Aortic Endothelial Cells)
Method: Sub-confluent BAEC cells (Bovine Aortic Endothelial Cells), in 96 well plates, were incubated with DMEM without serum for 30 minutes at 4° C. The compound of the invention to be assayed and FGF-2, labelled with europium (FGF-Eu, 10 ng/ml), were added in DMEM containing 0.15% gelatine and HEPES 25 mM. The plate was incubated for 2 hours at 4° C. After washings with cold medium, the amount of FGF-Eu bound to the cells was determined with DELFIA Enhancement Solution by measuring the time resolved fluorescence (Victor, PerkinElmer).
The compounds obtained in examples 2, 4, 8 and 10 were used at a concentration of 100 μM. As a reference the compound sm27 was used. The obtained results are reported in Table 2 and are expressed as inhibition percentage of the FGF-2 binding to endothelial cells induced by the compounds of the invention and by sm27 vs. the control (FGF-2 bond to endothelial cells in absence of inhibition). The value obtained with the control was assumed as 100% binding.
Example 18 has been repeated by using the two compounds of the prior art (2p) and (2r).

BAEC cells [4] = assay: Inhibition of the proliferation of endothelial cells induced by FGF-2 (Crystal Violet); assay type: cell-based, Bovine; settings: Table 6; 100 μM; expressed as in Table 2; average of 3 experiments

Chain of FGF-2 (P09038 143-288, species assumed): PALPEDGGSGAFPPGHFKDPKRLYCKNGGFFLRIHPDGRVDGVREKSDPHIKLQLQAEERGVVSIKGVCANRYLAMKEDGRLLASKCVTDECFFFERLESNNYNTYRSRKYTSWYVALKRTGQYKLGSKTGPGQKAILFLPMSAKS
T1 sequence (P09038 143-288): as the sequence (P09038 143-288, species assumed) above

In the case of `O=C(Nc1ccc2cc(S(=O)(=O)O)cc(O)c2c1)Nc1ccc2cc(S(=O)(=O)O)cc(O)c2c1` [sm27, reference compound], the “Cell proliferation (% vs. control)” value (BAEC cells [1]; 100 μM) is reported as 60 ± 6%, the “Sprouting area (% vs. control)” value ([2]; 100 μM) is reported as 44.0 ± 8% and the “% TS3R/FGF-2 binding vs. control” value (FGF-2; 100 μM) is reported as 17 ± 5%. For the same compound, the “Inhibition of the FGF-2 binding to endothelial cells (% binding FGF-2/endothelial cells vs. control)” value [3] was 40 ± 2%.

`CN(CCCNC(=O)c1nn(-c2ccc(Cl)cc2Cl)c2c1Cc1ccccc1-2)CCCNC(=O)c1nn(-c2ccc(Cl)cc2Cl)c2c1Cc1ccccc1-2` [Compound (2r), reference compound] was tested, and the “Inhibition of the angiogenesis induced by FGF-2 (aorta ring), in words” value [2] was “do not result active in inhibiting the angiogenesis induced by FGF-2”, the “Sprouting area (% vs. control)” value ([2]; 100 μM) was 91.1 ± 6% and the “Binding to FGF-2 / inhibition of TS3R/FGF-2 binding, in words” value (FGF-2; 100 μM) was “do not show any significant binding to FGF-2”. For the same compound, the “% TS3R/FGF-2 binding vs. control” value (FGF-2; 100 μM) was 98 ± 6% and the “Cell proliferation (% vs. control)” value (BAEC cells [4]) was 94 ± 6%.

`O=C(NCCCNC(=O)c1nn(-c2ccc(Cl)cc2Cl)c2c1Cc1cc(S(=O)(=O)O)sc1-2)c1nn(-c2ccc(Cl)cc2Cl)c2c1Cc1cc(S(=O)(=O)O)sc1-2` [Example 2, 3,3′-(propane-1,3-diylbis(azanediyl))bis(oxomethylene)bis(1-(2,4-dichlorophenyl)-1,4-dihydro-thieno[3′,2′:4,5]cyclopenta[1,2-c]pyrazole-6-sulfonic acid)] was tested, and the “Cell proliferation (% vs. control)” value (BAEC cells [1]; 10 μM, control = 100%) was 90 ± 3%, the “Cell proliferation (% vs. control)” value (BAEC cells [1]; 50 μM, control = 100%) was 20 ± 4% and the “Cell proliferation (% vs. control)” value (BAEC cells [1]; 100 μM) was 8 ± 3%. The “Sprouting area (% vs. control)” value ([2]; 50 μM) was 43.9 ± 9%, the “Sprouting area (% vs. control)” value ([2]; 75 μM) was 10.5 ± 5% and the “Sprouting area (% vs. control)” value ([2]; 100 μM) was 1.8 ± 0.7%. For the same compound, the “% TS3R/FGF-2 binding vs. control” value (FGF-2; 10 μM) was 25 ± 3%, the “% TS3R/FGF-2 binding vs. control” value (FGF-2; 100 μM) was 13 ± 3% and the “Inhibition of the FGF-2 binding to endothelial cells (% binding FGF-2/endothelial cells vs. control)” value [3] was 22 ± 3%.

With `CN(CCCNC(=O)c1nn(-c2ccccc2)c2c1Cc1ccccc1-2)CCCNC(=O)c1nn(-c2ccccc2)c2c1Cc1ccccc1-2` [Compound (2p), reference compound] the “Inhibition of the angiogenesis induced by FGF-2 (aorta ring), in words” value [2] was “do not result active in inhibiting the angiogenesis induced by FGF-2”, the “Sprouting area (% vs. control)” value ([2]; 100 μM) was 95.5 ± 5% and the “Binding to FGF-2 / inhibition of TS3R/FGF-2 binding, in words” value (FGF-2; 100 μM) was “do not show any significant binding to FGF-2”. The “% TS3R/FGF-2 binding vs. control” value (FGF-2; 100 μM) was 96 ± 3% and the “Cell proliferation (% vs. control)” value (BAEC cells [4]) was 97 ± 4%.

With `O=C(NCCCCCCNC(=O)c1nn(-c2ccc(Cl)cc2Cl)c2c1Cc1cc(S(=O)(=O)O)sc1-2)c1nn(-c2ccc(Cl)cc2Cl)c2c1Cc1cc(S(=O)(=O)O)sc1-2` [Example 4, 3,3′-(hexane-1,6-diylbis(azanediyl))bis(oxomethylene)bis(1-(2,4-dichlorophenyl)-1,4-dihydro-thieno[3′,2′:4,5]cyclopenta[1,2-c]pyrazole-6-sulfonic acid)] the “Cell proliferation (% vs. control)” value (BAEC cells [1]; 10 μM, control = 100%) was 92 ± 4%, the “Cell proliferation (% vs. control)” value (BAEC cells [1]; 50 μM, control = 100%) was 70 ± 6% and the “Cell proliferation (% vs. control)” value (BAEC cells [1]; 100 μM) was 30 ± 7%. The “Sprouting area (% vs. control)” value ([2]; 75 μM) was 21.0 ± 5%, the “Sprouting area (% vs. control)” value ([2]; 100 μM) was 15.8 ± 4% and the “% TS3R/FGF-2 binding vs. control” value (FGF-2; 10 μM) was 40 ± 2%. The “% TS3R/FGF-2 binding vs. control” value (FGF-2; 100 μM) was 20 ± 1% and the “Inhibition of the FGF-2 binding to endothelial cells (% binding FGF-2/endothelial cells vs. control)” value [3] was 30 ± 3%.

`Cc1ccc(Cn2nc(C(=O)NCCCCCCNC(=O)c3nn(Cc4ccc(C)cc4)c4c3Cc3cc(S(=O)(=O)O)sc3-4)c3c2-c2sc(S(=O)(=O)O)cc2C3)cc1` [Example 8, 3,3′-(hexane-1,6-diylbis(azanediyl))bis(oxomethylene)bis(1-(4-methylbenzyl)-1,4-dihydro-thieno[3′,2′:4,5]cyclopenta[1,2-c]pyrazole-6-sulfonic acid)] was tested, and the “Cell proliferation (% vs. control)” value (BAEC cells [1]; 10 μM, control = 100%) was 95 ± 2%, the “Cell proliferation (% vs. control)” value (BAEC cells [1]; 50 μM, control = 100%) was 80 ± 4% and the “Cell proliferation (% vs. control)” value (BAEC cells [1]; 100 μM) was 36 ± 5%. For the same compound, the “% TS3R/FGF-2 binding vs. control” value (FGF-2; 10 μM) was 61 ± 5%, the “% TS3R/FGF-2 binding vs. control” value (FGF-2; 100 μM) was 25 ± 4% and the “Inhibition of the FGF-2 binding to endothelial cells (% binding FGF-2/endothelial cells vs. control)” value [3] was 28 ± 4%.
